Laboratory results from PMC11397024, “Strategic Fluorination to Achieve a Potent, Selective, Metabolically Stable, and Orally Bioavailable Inhibitor of CSNK2” (Molecules, 2024).

What was measured:
Assay in all cases: NanoBRET K192
Format in all cases: cell-based
Conditions in all cases: HEK293
[1] = target: T1, RPS6KA2 (Homo sapiens, UniProt Q15349)
T1 construct: purchased Promega (NanoBRET Target Engagement K192 Kinase Selectivity System)
How it was run: (§1)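 HEK293 cells were transfected overnight with NanoLuc–kinase fusion vectors, then treated for 2 h at 37 °C with compound (added as 100 μM working solution) plus K10 tracer. BRET was read at 450/610 nm after substrate and extracellular inhibitor, and fractional occupancy was calculated against no-compound controls.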

[2] = target: T2, CDK10 + L2 (Homo sapiens, UniProt Q15131)
T2 construct: purchased Promega (NanoBRET Target Engagement K192 Kinase Selectivity System)
How it was run: as §1

[3] = target: T3, CDK3 + E1 (Homo sapiens, UniProt Q00526)
T3 construct: purchased Promega (NanoBRET Target Engagement K192 Kinase Selectivity System)
How it was run: as §1

[4] = target: T4, CDK9 + K (Homo sapiens, UniProt P50750)
T4 construct: purchased Promega (NanoBRET Target Engagement K192 Kinase Selectivity System)
How it was run: as §1

[5] = target: T5, AAK1 (Homo sapiens, UniProt Q2M2I8)
T5 construct: purchased Promega (NanoBRET Target Engagement K192 Kinase Selectivity System)
How it was run: as §1

[6] = target: T6, MAPK8 (Homo sapiens, UniProt P45983)
T6 construct: purchased Promega (NanoBRET Target Engagement K192 Kinase Selectivity System)
How it was run: as §1

[7] = target: T7, AURKB (Homo sapiens, UniProt Q96GD4)
T7 construct: purchased Promega (NanoBRET Target Engagement K192 Kinase Selectivity System)
How it was run: as §1

[8] = target: T8, MET (Homo sapiens, UniProt P08581)
T8 construct: purchased Promega (NanoBRET Target Engagement K192 Kinase Selectivity System)
How it was run: as §1

[9] = target: T9, NEK9 (Homo sapiens, UniProt Q8TD19)
T9 construct: purchased Promega (NanoBRET Target Engagement K192 Kinase Selectivity System)
How it was run: as §1

[10] = target: T10, PLK2 (Homo sapiens, UniProt Q9NYY3)
T10 construct: purchased Promega (NanoBRET Target Engagement K192 Kinase Selectivity System)
How it was run: as §1

[11] = target: T11, RPS6KA6 (Homo sapiens, UniProt Q9UK32)
T11 construct: purchased Promega (NanoBRET Target Engagement K192 Kinase Selectivity System)
How it was run: as §1

[12] = target: T12, LIMK1 (Homo sapiens, UniProt P53667)
T12 construct: purchased Promega (NanoBRET Target Engagement K192 Kinase Selectivity System)
How it was run: as §1

[13] = target: T13, PRKAA2 (Homo sapiens, UniProt P54646)
T13 construct: purchased Promega (NanoBRET Target Engagement K192 Kinase Selectivity System)
How it was run: as §1

[14] = target: T14, NTRK1v1 (Homo sapiens, UniProt P04629)
T14 construct: purchased Promega (NanoBRET Target Engagement K192 Kinase Selectivity System)
How it was run: as §1

[15] = target: T15, MELK (Homo sapiens, UniProt Q14680)
T15 construct: purchased Promega (NanoBRET Target Engagement K192 Kinase Selectivity System)
How it was run: as §1

[16] = target: T16, PRKX (Homo sapiens, UniProt P51817)
T16 construct: purchased Promega (NanoBRET Target Engagement K192 Kinase Selectivity System)
How it was run: as §1

[17] = target: T17, NEK11 (Homo sapiens, UniProt Q8NG66)
T17 construct: purchased Promega (NanoBRET Target Engagement K192 Kinase Selectivity System)
How it was run: as §1

[18] = target: T18, RPS6KA4 (Homo sapiens, UniProt O75676)
T18 construct: purchased Promega (NanoBRET Target Engagement K192 Kinase Selectivity System)
How it was run: as §1

[19] = target: T19, TIE1 (Homo sapiens, UniProt P35590)
T19 construct: purchased Promega (NanoBRET Target Engagement K192 Kinase Selectivity System)
How it was run: as §1

[20] = target: T20, MAP3K11 (Homo sapiens, UniProt Q16584)
T20 construct: purchased Promega (NanoBRET Target Engagement K192 Kinase Selectivity System)
How it was run: as §1

[21] = target: T21, STK36 (Homo sapiens, UniProt Q9NRP7)
T21 construct: host or cells: HEK293
How it was run: as §1

[22] = target: T22, MAP4K2 (Homo sapiens, UniProt Q12851)
T22 construct: purchased Promega (NanoBRET Target Engagement K192 Kinase Selectivity System)
How it was run: as §1

[23] = target: T23, RIPK1 (Homo sapiens, UniProt Q13546)
T23 construct: purchased Promega (NanoBRET Target Engagement K192 Kinase Selectivity System)
How it was run: as §1

[24] = target: T24, ITK (Homo sapiens, UniProt Q08881)
T24 construct: purchased Promega (NanoBRET Target Engagement K192 Kinase Selectivity System)
How it was run: as §1

[25] = target: T25, CHEK2 (Homo sapiens, UniProt O96017)
T25 construct: purchased Promega (NanoBRET Target Engagement K192 Kinase Selectivity System)
How it was run: as §1

[26] = target: T26, MAP3K4 (Homo sapiens, UniProt Q9Y6R4)
T26 construct: purchased Promega (NanoBRET Target Engagement K192 Kinase Selectivity System)
How it was run: as §1

[27] = target: T27, MAPK9 (Homo sapiens, UniProt P45984)
T27 construct: purchased Promega (NanoBRET Target Engagement K192 Kinase Selectivity System)
How it was run: as §1

[28] = target: T28, CDK7 + pMB (Homo sapiens, UniProt P50613)
T28 construct: purchased Promega (NanoBRET Target Engagement K192 Kinase Selectivity System)
How it was run: as §1

T1 sequence (Q15349 whole entry): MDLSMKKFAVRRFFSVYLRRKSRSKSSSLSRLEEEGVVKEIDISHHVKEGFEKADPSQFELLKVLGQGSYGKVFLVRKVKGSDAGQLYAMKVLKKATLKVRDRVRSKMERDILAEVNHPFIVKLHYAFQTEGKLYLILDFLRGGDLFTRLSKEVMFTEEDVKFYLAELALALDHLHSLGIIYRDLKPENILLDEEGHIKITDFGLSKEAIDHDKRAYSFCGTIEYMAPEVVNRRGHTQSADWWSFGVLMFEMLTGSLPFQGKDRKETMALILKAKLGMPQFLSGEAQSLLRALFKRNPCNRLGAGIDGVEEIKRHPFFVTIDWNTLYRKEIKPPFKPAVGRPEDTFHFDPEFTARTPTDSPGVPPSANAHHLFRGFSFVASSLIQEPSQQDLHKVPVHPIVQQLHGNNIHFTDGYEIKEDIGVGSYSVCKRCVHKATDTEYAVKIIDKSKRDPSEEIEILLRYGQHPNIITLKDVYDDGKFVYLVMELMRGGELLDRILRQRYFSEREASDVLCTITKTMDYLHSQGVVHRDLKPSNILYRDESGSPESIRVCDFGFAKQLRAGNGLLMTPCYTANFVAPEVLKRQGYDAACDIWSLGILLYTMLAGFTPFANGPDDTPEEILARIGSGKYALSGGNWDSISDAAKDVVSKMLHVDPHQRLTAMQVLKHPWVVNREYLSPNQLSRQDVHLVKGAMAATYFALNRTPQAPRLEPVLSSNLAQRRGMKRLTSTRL
T26 sequence (Q9Y6R4 whole entry): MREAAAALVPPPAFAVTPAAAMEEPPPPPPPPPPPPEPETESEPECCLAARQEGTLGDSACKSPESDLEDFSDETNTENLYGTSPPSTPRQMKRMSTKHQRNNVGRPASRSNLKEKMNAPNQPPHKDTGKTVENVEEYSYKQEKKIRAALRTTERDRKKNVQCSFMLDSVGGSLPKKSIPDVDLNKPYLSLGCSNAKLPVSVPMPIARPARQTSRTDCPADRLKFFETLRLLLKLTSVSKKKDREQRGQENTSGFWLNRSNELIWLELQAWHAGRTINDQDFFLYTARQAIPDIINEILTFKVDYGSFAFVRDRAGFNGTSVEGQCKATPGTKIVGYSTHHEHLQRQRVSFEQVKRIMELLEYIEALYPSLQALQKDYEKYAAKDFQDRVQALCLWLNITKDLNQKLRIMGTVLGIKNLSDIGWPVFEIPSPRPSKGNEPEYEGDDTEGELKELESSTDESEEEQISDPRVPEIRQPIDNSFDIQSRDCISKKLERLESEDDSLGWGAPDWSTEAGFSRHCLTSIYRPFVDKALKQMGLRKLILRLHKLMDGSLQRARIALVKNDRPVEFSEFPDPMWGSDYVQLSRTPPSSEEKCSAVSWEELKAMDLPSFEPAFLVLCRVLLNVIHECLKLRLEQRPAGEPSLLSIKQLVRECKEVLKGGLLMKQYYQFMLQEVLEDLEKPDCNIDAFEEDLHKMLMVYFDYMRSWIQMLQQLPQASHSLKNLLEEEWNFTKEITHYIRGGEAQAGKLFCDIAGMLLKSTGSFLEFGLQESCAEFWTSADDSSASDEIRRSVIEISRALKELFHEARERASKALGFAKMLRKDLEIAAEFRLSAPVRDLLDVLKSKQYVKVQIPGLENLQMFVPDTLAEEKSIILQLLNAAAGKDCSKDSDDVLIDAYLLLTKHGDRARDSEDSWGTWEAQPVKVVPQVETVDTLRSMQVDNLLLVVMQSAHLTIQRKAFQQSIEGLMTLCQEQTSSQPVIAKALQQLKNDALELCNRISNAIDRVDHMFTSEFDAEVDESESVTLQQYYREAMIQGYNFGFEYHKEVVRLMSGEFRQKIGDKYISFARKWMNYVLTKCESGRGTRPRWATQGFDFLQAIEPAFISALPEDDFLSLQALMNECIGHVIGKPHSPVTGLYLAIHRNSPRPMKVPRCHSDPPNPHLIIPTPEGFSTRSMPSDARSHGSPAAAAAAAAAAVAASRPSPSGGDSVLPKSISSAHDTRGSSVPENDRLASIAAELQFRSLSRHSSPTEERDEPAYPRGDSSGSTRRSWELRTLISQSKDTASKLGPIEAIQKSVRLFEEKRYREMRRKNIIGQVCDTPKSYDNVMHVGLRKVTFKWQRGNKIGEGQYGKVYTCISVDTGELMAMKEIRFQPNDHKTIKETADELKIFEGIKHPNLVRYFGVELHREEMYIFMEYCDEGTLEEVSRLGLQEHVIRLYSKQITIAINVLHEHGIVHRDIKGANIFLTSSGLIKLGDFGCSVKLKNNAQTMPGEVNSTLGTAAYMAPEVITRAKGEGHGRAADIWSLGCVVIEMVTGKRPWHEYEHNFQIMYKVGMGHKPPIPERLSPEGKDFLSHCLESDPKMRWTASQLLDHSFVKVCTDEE
T16 sequence (P51817 whole entry): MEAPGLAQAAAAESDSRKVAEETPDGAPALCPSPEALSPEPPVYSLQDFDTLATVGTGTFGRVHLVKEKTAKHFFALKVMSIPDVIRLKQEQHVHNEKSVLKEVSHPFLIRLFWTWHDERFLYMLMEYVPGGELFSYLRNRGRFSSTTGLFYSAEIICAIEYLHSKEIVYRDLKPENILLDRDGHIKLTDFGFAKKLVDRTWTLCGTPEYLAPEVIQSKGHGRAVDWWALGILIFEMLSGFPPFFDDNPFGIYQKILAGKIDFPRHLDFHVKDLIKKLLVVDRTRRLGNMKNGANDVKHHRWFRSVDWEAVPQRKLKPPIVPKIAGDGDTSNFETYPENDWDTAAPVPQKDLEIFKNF
T22 sequence (Q12851 whole entry): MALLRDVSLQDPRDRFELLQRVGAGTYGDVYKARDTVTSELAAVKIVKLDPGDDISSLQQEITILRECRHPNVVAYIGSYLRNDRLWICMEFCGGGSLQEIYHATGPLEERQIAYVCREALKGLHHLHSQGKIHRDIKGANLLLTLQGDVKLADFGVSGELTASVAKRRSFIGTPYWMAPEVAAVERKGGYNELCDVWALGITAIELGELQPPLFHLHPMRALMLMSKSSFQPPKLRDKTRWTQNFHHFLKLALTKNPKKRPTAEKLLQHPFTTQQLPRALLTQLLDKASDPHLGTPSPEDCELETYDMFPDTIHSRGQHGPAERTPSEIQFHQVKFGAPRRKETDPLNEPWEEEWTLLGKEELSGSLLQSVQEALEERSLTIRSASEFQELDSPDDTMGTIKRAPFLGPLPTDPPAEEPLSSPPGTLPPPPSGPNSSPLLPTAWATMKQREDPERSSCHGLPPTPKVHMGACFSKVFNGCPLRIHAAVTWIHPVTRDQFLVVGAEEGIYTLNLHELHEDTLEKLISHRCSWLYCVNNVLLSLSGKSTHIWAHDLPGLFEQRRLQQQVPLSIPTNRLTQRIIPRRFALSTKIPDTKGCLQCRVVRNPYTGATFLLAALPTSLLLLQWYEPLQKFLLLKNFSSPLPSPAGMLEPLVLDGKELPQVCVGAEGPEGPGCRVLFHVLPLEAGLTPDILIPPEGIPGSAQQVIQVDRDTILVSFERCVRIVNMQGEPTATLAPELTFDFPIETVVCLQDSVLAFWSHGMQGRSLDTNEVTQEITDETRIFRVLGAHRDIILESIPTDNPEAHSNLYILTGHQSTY
T8 sequence (P08581 25-1390): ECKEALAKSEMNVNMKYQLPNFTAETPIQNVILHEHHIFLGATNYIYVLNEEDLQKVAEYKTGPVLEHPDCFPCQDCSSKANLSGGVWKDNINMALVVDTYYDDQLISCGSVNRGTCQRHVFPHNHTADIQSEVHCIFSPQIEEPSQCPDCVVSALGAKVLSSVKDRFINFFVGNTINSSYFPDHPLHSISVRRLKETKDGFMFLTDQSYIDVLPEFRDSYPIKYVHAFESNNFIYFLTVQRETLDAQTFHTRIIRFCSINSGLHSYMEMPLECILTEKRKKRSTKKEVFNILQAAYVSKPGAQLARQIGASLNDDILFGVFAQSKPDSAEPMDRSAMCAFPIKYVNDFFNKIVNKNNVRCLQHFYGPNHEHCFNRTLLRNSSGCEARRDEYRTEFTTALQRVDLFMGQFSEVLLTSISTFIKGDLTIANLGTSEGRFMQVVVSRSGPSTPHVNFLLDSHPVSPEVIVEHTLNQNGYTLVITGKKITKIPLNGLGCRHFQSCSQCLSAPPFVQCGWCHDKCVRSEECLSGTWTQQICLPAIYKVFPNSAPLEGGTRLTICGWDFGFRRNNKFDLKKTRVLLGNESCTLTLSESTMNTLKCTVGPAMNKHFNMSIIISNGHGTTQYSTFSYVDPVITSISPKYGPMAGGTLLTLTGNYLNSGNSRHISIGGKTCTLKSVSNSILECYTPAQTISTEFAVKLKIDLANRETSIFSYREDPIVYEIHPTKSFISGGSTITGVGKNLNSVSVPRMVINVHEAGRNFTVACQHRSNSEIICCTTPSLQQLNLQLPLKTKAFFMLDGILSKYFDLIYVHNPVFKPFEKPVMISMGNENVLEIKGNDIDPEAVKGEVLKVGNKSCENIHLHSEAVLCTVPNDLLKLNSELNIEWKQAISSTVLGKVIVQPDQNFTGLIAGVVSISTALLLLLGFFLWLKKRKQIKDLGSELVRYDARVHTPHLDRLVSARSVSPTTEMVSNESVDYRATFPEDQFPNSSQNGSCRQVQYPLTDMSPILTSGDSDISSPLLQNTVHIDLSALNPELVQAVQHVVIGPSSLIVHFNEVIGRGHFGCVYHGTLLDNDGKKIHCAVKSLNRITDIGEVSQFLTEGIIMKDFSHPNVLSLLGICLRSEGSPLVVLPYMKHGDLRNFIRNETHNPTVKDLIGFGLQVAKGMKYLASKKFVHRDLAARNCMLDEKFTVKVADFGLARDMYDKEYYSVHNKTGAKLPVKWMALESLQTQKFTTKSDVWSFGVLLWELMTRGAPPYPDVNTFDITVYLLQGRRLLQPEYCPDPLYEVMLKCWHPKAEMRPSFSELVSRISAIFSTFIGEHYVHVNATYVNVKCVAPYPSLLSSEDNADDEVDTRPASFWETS

Work on `CCC(=O)Nc1cc(Nc2cc(NC3CC3)n3ncc(C#N)c3n2)c(F)cc1N1CCC[C@H](NC)C1` [Compound 2, (S)-N-(5-((3-cyano-7-(cyclopropylamino)pyrazolo[1,5-a]pyrimidin-5-yl)amino)-4-fluoro-2-(3-(methylamino)piperidin-1-yl)phenyl)propionamide] yielded a receptor occupancy at 10 µM [1] of 2.4%, a receptor occupancy at 10 µM [2] of 13.6% and a receptor occupancy at 10 µM [3] of 12.1%. For the same molecule, the receptor occupancy at 10 µM [4] was 19.8%, the receptor occupancy at 10 µM [5] was 17.8% and the receptor occupancy at 10 µM [6] was 0.6%. The receptor occupancy at 10 µM [7] was 1.4%, the receptor occupancy at 10 µM [8] was 12.3% and the receptor occupancy at 10 µM [9] was 1%. It also gave a receptor occupancy at 10 µM [10] of 29.6%, a receptor occupancy at 10 µM [11] of 10.6% and a receptor occupancy at 10 µM [12] of 6.6%. For the same molecule, the receptor occupancy at 10 µM [13] was 0.5%, the receptor occupancy at 10 µM [14] was 4.6% and the receptor occupancy at 10 µM [15] was 24.5%. For the same molecule, the receptor occupancy at 10 µM [16] was 10.6%, the receptor occupancy at 10 µM [17] was 19.1% and the receptor occupancy at 10 µM [18] was 6.4%. It also gave a receptor occupancy at 10 µM [19] of 20.6%, a receptor occupancy at 10 µM [20] of 19.5% and a receptor occupancy at 10 µM [21] of -7.6%. For the same molecule, the receptor occupancy at 10 µM [22] was 31.4%, the receptor occupancy at 10 µM [23] was 9.1% and the receptor occupancy at 10 µM [24] was 11.9%. For the same molecule, the receptor occupancy at 10 µM [25] was -0.8%, the receptor occupancy at 10 µM [26] was 4.9% and the receptor occupancy at 10 µM [27] was 2.4%. It also gave a receptor occupancy at 10 µM [28] of 43.9%.
